{"source": "the supplement of paper PMC4862054", "assay_in_all_cases": "normalised viability (% of control), CellTiter-Blue; higher = more viable cells (about 100 = DMSO control)", "details_in_all_cases": "incubation time: 72 h", "key": {"[1]": {"test_system": "MDA-MB-453", "method": "(§1)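 DSRT, CellTiter-Blue viability, 72 h incubation. Signal is normalised to DMSO and benzethonium chloride controls. Value is the normalised response at dose 7.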"}, "[2]": {"test_system": "CAL-51", "method": "as §1"}, "[3]": {"test_system": "HDQ-P1", "method": "as §1"}, "[4]": {"test_system": "CAL-148", "method": "as §1"}, "[5]": {"test_system": "DU-4475", "method": "as §1"}, "[6]": {"test_system": "CAL-85-1", "method": "as §1"}, "[7]": {"test_system": "HCC1599", "method": "(§2)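 DSRT, CellTiter-Blue viability, 72 h incubation. Signal is normalised to DMSO and benzethonium chloride controls. Value is the normalised response at dose 3.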"}, "[8]": {"test_system": "MDA-MB-468", "method": "as §2"}, "[9]": {"test_system": "MDA-MB-231", "method": "as §2"}, "[10]": {"test_system": "MDA-MB-453", "method": "as §2", "remark": "listed apart in the source"}, "[11]": {"test_system": "CAL-51", "method": "as §2", "remark": "listed apart in the source"}, "[12]": {"test_system": "MFM-223", "method": "as §2"}, "[13]": {"test_system": "Hs578T", "method": "as §2"}, "[14]": {"test_system": "HDQ-P1", "method": "as §2", "remark": "listed apart in the source"}, "[15]": {"test_system": "CAL-148", "method": "as §2", "remark": "listed apart in the source"}, "[16]": {"test_system": "BT-474", "method": "as §2"}, "[17]": {"test_system": "HCC1937", "method": "as §2"}, "[18]": {"test_system": "DU-4475", "method": "as §2", "remark": "listed apart in the source"}, "[19]": {"test_system": "BT-549", "method": "as §2"}, "[20]": {"test_system": "SK-BR-3", "method": "as §2"}, "[21]": {"test_system": "CAL-85-1", "method": "as §2", "remark": "listed apart in the source"}, "[22]": {"test_system": "HCC1143", "method": "as §2"}, "[23]": {"test_system": "CAL-120", "method": "as §2"}, "[24]": {"test_system": "MDA-MB-436", "method": "as §2"}, "[25]": {"test_system": "MDA-MB-453", "method": "(§3)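 DSRT, CellTiter-Blue viability, 72 h incubation. Signal is normalised to DMSO and benzethonium chloride controls. Value is the normalised response at dose 8.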", "remark": "listed apart in the source"}, "[26]": {"test_system": "CAL-51", "method": "as §3", "remark": "listed apart in the source"}, "[27]": {"test_system": "HDQ-P1", "method": "as §3", "remark": "listed apart in the source"}, "[28]": {"test_system": "CAL-148", "method": "as §3", "remark": "listed apart in the source"}, "[29]": {"test_system": "DU-4475", "method": "as §3", "remark": "listed apart in the source"}, "[30]": {"test_system": "CAL-85-1", "method": "as §3", "remark": "listed apart in the source"}, "[31]": {"test_system": "HCC1599", "outline": "(§4)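 Breast cancer cell lines were treated for 72 h in 384-well format and measured by CellTiter-Blue fluorescence at 560/590 nm. Results were normalised per plate to vehicle (100) and a positive kill control (0). The entry is normalised viability at a single listed concentration of the series.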", "remark": "listed apart in the source"}, "[32]": {"test_system": "CAL-120", "outline": "as §4", "remark": "listed apart in the source"}}}
{"smiles": "C=CC(=O)N1CCC[C@@H](n2nc(-c3ccc(Oc4ccccc4)cc3)c3c(N)ncnc32)C1", "values": [{"measurement": "normalised viability", "setting": "[1]; 100 nM", "result": 39.5, "unit": "%"}, {"measurement": "normalised viability", "setting": "[2]; 100 nM", "result": 91.9, "unit": "%"}, {"measurement": "normalised viability", "setting": "[3]; 100 nM", "result": 111, "unit": "%"}, {"measurement": "normalised viability", "setting": "[4]; 100 nM", "result": 98, "unit": "%"}, {"measurement": "normalised viability", "setting": "[5]; 100 nM", "result": 92.4, "unit": "%"}, {"measurement": "normalised viability", "setting": "[6]; 100 nM", "result": 77.3, "unit": "%"}, {"measurement": "normalised viability", "setting": "[7]; 10 nM", "result": 85.6, "unit": "%"}, {"measurement": "normalised viability", "setting": "[8]; 10 nM", "result": 102, "unit": "%"}, {"measurement": "normalised viability", "setting": "[9]; 10 nM", "result": 90.3, "unit": "%"}, {"measurement": "normalised viability", "setting": "[10]; 1 nM", "result": 94.4, "unit": "%"}, {"measurement": "normalised viability", "setting": "[11]; 1 nM", "result": 95, "unit": "%"}, {"measurement": "normalised viability", "setting": "[12]; 10 nM", "result": 91.1, "unit": "%"}, {"measurement": "normalised viability", "setting": "[13]; 10 nM", "result": 99.8, "unit": "%"}, {"measurement": "normalised viability", "setting": "[14]; 1 nM", "result": 111, "unit": "%"}, {"measurement": "normalised viability", "setting": "[15]; 1 nM", "result": 99.5, "unit": "%"}, {"measurement": "normalised viability", "setting": "[16]; 10 nM", "result": 84.3, "unit": "%"}, {"measurement": "normalised viability", "setting": "[17]; 10 nM", "result": 108, "unit": "%"}, {"measurement": "normalised viability", "setting": "[18]; 1 nM", "result": 92.8, "unit": "%"}, {"measurement": "normalised viability", "setting": "[19]; 10 nM", "result": 97.9, "unit": "%"}, {"measurement": "normalised viability", "setting": "[20]; 10 nM", "result": 57.9, "unit": "%"}, {"measurement": "normalised viability", "setting": "[21]; 1 nM", "result": 96.2, "unit": "%"}, {"measurement": "normalised viability", "setting": "[22]; 10 nM", "result": 79.6, "unit": "%"}, {"measurement": "normalised viability", "setting": "[23]; 10 nM", "result": 83.5, "unit": "%"}, {"measurement": "normalised viability", "setting": "[24]; 10 nM", "result": 88.2, "unit": "%"}, {"measurement": "normalised viability", "setting": "[25]; 300 nM", "result": 26.9, "unit": "%"}, {"measurement": "normalised viability", "setting": "[26]; 300 nM", "result": 85.5, "unit": "%"}, {"measurement": "normalised viability", "setting": "[27]; 300 nM", "result": 87.5, "unit": "%"}, {"measurement": "normalised viability", "setting": "[28]; 300 nM", "result": 84.6, "unit": "%"}, {"measurement": "normalised viability", "setting": "[29]; 300 nM", "result": 96.1, "unit": "%"}, {"measurement": "normalised viability", "setting": "[30]; 300 nM", "result": 57.1, "unit": "%"}, {"measurement": "normalised viability", "setting": "[31]; 1 nM", "result": 104, "unit": "%"}, {"measurement": "normalised viability", "setting": "[31]; 100 nM", "result": 83.3, "unit": "%"}, {"measurement": "normalised viability", "setting": "[31]; 1000 nM", "result": 82.6, "unit": "%"}, {"measurement": "normalised viability", "setting": "[32]; 1 nM", "result": 86.4, "unit": "%"}, {"measurement": "normalised viability", "setting": "[32]; 100 nM", "result": 86.4, "unit": "%"}, {"measurement": "normalised viability", "setting": "[32]; 1000 nM", "result": 97, "unit": "%"}]}
{"smiles": "CC(=O)Nc1cccc(-n2c(=O)n(C3CC3)c(=O)c3c(Nc4ccc(I)cc4F)n(C)c(=O)c(C)c32)c1", "values": [{"measurement": "normalised viability", "setting": "[1]; 25 nM", "result": 71.8, "unit": "%"}, {"measurement": "normalised viability", "setting": "[2]; 25 nM", "result": 69, "unit": "%"}, {"measurement": "normalised viability", "setting": "[3]; 25 nM", "result": 63.6, "unit": "%"}, {"measurement": "normalised viability", "setting": "[4]; 25 nM", "result": 91.2, "unit": "%"}, {"measurement": "normalised viability", "setting": "[5]; 25 nM", "result": -0.2, "unit": "%"}, {"measurement": "normalised viability", "setting": "[6]; 25 nM", "result": 60.4, "unit": "%"}, {"measurement": "normalised viability", "setting": "[7]; 2.5 nM", "result": 84.6, "unit": "%"}, {"measurement": "normalised viability", "setting": "[8]; 2.5 nM", "result": 105, "unit": "%"}, {"measurement": "normalised viability", "setting": "[9]; 2.5 nM", "result": 57.7, "unit": "%"}, {"measurement": "normalised viability", "setting": "[10]; 0.25 nM", "result": 106, "unit": "%"}, {"measurement": "normalised viability", "setting": "[11]; 0.25 nM", "result": 90.4, "unit": "%"}, {"measurement": "normalised viability", "setting": "[12]; 2.5 nM", "result": 90.6, "unit": "%"}, {"measurement": "normalised viability", "setting": "[13]; 2.5 nM", "result": 94.9, "unit": "%"}, {"measurement": "normalised viability", "setting": "[14]; 0.25 nM", "result": 103, "unit": "%"}, {"measurement": "normalised viability", "setting": "[15]; 0.25 nM", "result": 107, "unit": "%"}, {"measurement": "normalised viability", "setting": "[16]; 2.5 nM", "result": 119, "unit": "%"}, {"measurement": "normalised viability", "setting": "[17]; 2.5 nM", "result": 102, "unit": "%"}, {"measurement": "normalised viability", "setting": "[18]; 0.25 nM", "result": 101, "unit": "%"}, {"measurement": "normalised viability", "setting": "[19]; 2.5 nM", "result": 104, "unit": "%"}, {"measurement": "normalised viability", "setting": "[20]; 2.5 nM", "result": 92.7, "unit": "%"}, {"measurement": "normalised viability", "setting": "[21]; 0.25 nM", "result": 97.3, "unit": "%"}, {"measurement": "normalised viability", "setting": "[22]; 2.5 nM", "result": 86.7, "unit": "%"}, {"measurement": "normalised viability", "setting": "[23]; 2.5 nM", "result": 99.4, "unit": "%"}, {"measurement": "normalised viability", "setting": "[24]; 2.5 nM", "result": 92.8, "unit": "%"}, {"measurement": "normalised viability", "setting": "[25]; 75 nM", "result": 72.8, "unit": "%"}, {"measurement": "normalised viability", "setting": "[26]; 75 nM", "result": 73.3, "unit": "%"}, {"measurement": "normalised viability", "setting": "[27]; 75 nM", "result": 47.9, "unit": "%"}, {"measurement": "normalised viability", "setting": "[28]; 75 nM", "result": 85.2, "unit": "%"}, {"measurement": "normalised viability", "setting": "[29]; 75 nM", "result": -1.23, "unit": "%"}, {"measurement": "normalised viability", "setting": "[30]; 75 nM", "result": 38.8, "unit": "%"}, {"measurement": "normalised viability", "setting": "[31]; 0.25 nM", "result": 93.1, "unit": "%"}, {"measurement": "normalised viability", "setting": "[31]; 25 nM", "result": 69.8, "unit": "%"}, {"measurement": "normalised viability", "setting": "[31]; 250 nM", "result": 50.1, "unit": "%"}, {"measurement": "normalised viability", "setting": "[32]; 0.25 nM", "result": 113, "unit": "%"}, {"measurement": "normalised viability", "setting": "[32]; 25 nM", "result": 68.1, "unit": "%"}, {"measurement": "normalised viability", "setting": "[32]; 250 nM", "result": 47.6, "unit": "%"}]}
